# Activity calls are given as the source filed them. No rule for the calls is given here.
# System: VEGF-stimulated ADSC/ECFC co-culture, nuclear area imaging
# Assay: nuclear area loss in endothelial-stromal co-culture, dose response, cell-based, VEGF stimulation, IC50 (AID 1117324)
row,Compound,IC50
1,CCCCCCCCCCCCNCCNCCNCC(=O)O,> 10 µM (inactive)
2,O=C(Nc1ccc([N+](=O)[O-])cc1)Nc1ccc([N+](=O)[O-])cc1,> 10 µM (inactive)
3,Cc1c(C)c2c(c(C)c1O)CC[C@@](C)(CCC[C@H](C)CCC[C@H](C)CCCC(C)C)O2,> 10 µM (inactive)
4,Cc1cc(C2CCCCC2)n(O)c(=O)c1,> 10 µM (inactive)
5,CC[N+](CC)(CC)CCOc1ccc(/C=C/c2ccccc2)cc1,> 10 µM (inactive)
6,Cc1nc2ccc(CN(C)c3ccc(C(=O)N[C@@H](CCC(=O)O)C(=O)O)s3)cc2c(=O)[nH]1,> 10 µM (inactive)
7,CC(=O)Nc1ccn(C2COC(COC(=O)c3ccccc3)O2)c(=O)n1 (configuration not stated),> 10 µM (inactive)
8,Oc1c(Cl)cc(Cl)c2cccnc12,> 10 µM (inactive)
9,O=C(N/N=C/c1ccccc1O)c1ccncc1,> 10 µM (inactive)
10,O=c1c(-c2ccccc2)c1-c1ccccc1,6.75 µM (inactive)
11,CN1CCN(c2cc3c(nn2)Oc2ccccc2N3C)CC1,> 10 µM (inactive)
12,O=C(Nc1ccc(S(=O)(=O)N2CCOCC2)cc1)c1cc(Cl)ccc1NS(=O)(=O)c1ccc(Cl)s1,> 10 µM (inactive)
13,Cn1cc(S(C)=O)c(=O)c2ccc(F)cc21 (configuration not stated),> 10 µM (inactive)
14,S=C=Nc1ccc(N=C=S)cc1,> 10 µM (inactive)
15,O=C1c2c(O)ccc(O)c2C(=O)c2c(NCCNCCO)ccc(NCCNCCO)c21,0.0127 µM
16,CO[C@H]1O[C@@H]2O[C@@]3(C)CC[C@H]4[C@H](C)CC[C@@H]([C@@H]1C)[C@@]24OO3,> 10 µM (inactive)
17,Cc1cc2nc3ccc(=[N+](C)C)cc-3sc2cc1N,8.15 µM (inactive)
18,COc1cc2c(c(OC)c1OC)-c1ccc(OC)c(=O)cc1[C@@H](NC(C)=O)CC2,> 10 µM (inactive)
19,CC(C)CCCC(C)NCCC(C)C (configuration not stated),> 10 µM (inactive)
20,O=C(CCBr)N1CCN(C(=O)CCBr)CC1,> 10 µM (inactive)
21,O=C(O)CCCc1ccc(N(CCCl)CCCl)cc1,> 10 µM (inactive)
22,CCCCCCCCCCOCC(O)CN (configuration not stated),> 10 µM (inactive)
23,Cc1c(O)cc2c(c1C)O[C@](C)(CCC[C@H](C)CCC[C@H](C)CCCC(C)C)CC2,> 10 µM (inactive)
24,Cc1cccc(Nc2cc(Cl)nc(SCC(=O)O)n2)c1C,> 10 µM (inactive)

row,Compound,IC50
1,CC[C@]12CCCN3CCc4c(n(c5ccccc45)C(=O)C1)[C@@H]32,> 10 µM (inactive)
2,CCOC(=O)NC(C)(C)Cc1ccc(Cl)cc1,> 10 µM (inactive)
3,COC(=O)C1=C(C)NC(C)=C(C(=O)OCCN2CCN(C(c3ccccc3)c3ccccc3)CC2)C1c1cccc([N+](=O)[O-])c1 (configuration not stated),> 10 µM (inactive)
4,CC[C@@]1(O)C(=O)OCc2c1cc1n(c2=O)Cc2c-1nc1ccccc1c2/C=N/OC(C)(C)C,0.799 µM
5,C#C[C@]1(O)CC[C@@H]2[C@@H]3CCC4=CCCC[C@@H]4[C@H]3C(=C)C[C@@]21CC,9.57 µM (inactive)
6,COC(=O)CCCCC(CCSS/C(CCO)=C(\C)N(C=O)Cc1cnc(C)nc1N)SC(C)=O (configuration not stated),> 10 µM (inactive)
7,CC[C@]1(O)CC[C@H]2[C@@H]3CCC4=CCCC[C@@H]4[C@H]3CC[C@@]21C,> 10 µM (inactive)
8,CN1CCC[C@@H]1CCO[C@](C)(c1ccccc1)c1ccc(Cl)cc1,> 10 µM (inactive)
9,Nc1nc(=S)c2[nH]cnc2[nH]1,> 10 µM (inactive)
10,CCc1c2c(nc3ccc(OC(=O)N4CCC(N5CCCCC5)CC4)cc13)-c1cc3c(c(=O)n1C2)COC(=O)[C@]3(O)CC,8.12 µM (inactive)
11,CN(Cc1cnc2nc(N)nc(N)c2n1)c1ccc(C(=O)N[C@@H](CCC(=O)O)C(=O)O)cc1,> 10 µM (inactive)
12,CC(=O)Oc1cccc2c1C(=O)c1c(OC(C)=O)cc(C(=O)O)cc1C2=O,> 10 µM (inactive)
13,CCCCCCCCCCCCCCCC[N+](C)(C)CC,7.58 µM (inactive)
14,COc1ccc(/C=N/NC(=O)c2ccncc2)cc1OC,> 10 µM (inactive)
15,CCCCC(CC)COC(=O)CC(C(=O)OCC(CC)CCCC)S(=O)(=O)O (configuration not stated),> 10 µM (inactive)
16,CCCCN1CCCC1C(=O)Nc1c(C)cc(C)cc1C (configuration not stated),> 10 µM (inactive)
17,Cc1cc(OI)c(C(C)C)cc1-c1cc(C(C)C)c(OI)cc1C,> 10 µM (inactive)
18,CCCCCCCCCCCC[N+](C)(C)CCOc1ccccc1,7.29 µM (inactive)
19,CCN(CC)CCOc1ccc(/C(=C(\Cl)c2ccccc2)c2ccccc2)cc1,> 10 µM (inactive)
20,O=c1c(-c2ccc(O)cc2)coc2cc(O)cc(O)c12,> 10 µM (inactive)
21,O=C(CCCN1CCC(O)(c2cccc(C(F)(F)F)c2)CC1)c1ccc(F)cc1,> 10 µM (inactive)
22,Cc1c(C)c2c(c(C)c1O)CCC(C)(COc1ccc(CC3SC(=O)NC3=O)cc1)O2 (configuration not stated),> 10 µM (inactive)
23,COc1cc(NCc2ccc3nc(N)nc(N)c3c2C)cc(OC)c1OC,> 10 µM (inactive)
